Like-named read-outs stand apart in the source and are kept apart here.
Assays:
[1] = test system: human OPN promoter (pOPN1-luc) in A549/OPNluc cells; assay: Luciferase assay: luciferase expression under control of OPN promoter; type: cell-based
Text: (§1) A reporter vector pOPN1-luc obtained by the insertion of a human OPN promoter sequence (−765 to 23) into the multiple cloning site of pGL-3 basic vector (Promega) expresses luciferase when transfected into animal cells. The pOPN1-luc was transfected into a human non-small cell lung cancer-derived cell line A549 together with pPUR (Clontech) that expresses a puromycin resistance gene (puromycin-N-acetyl-transferase gene), and then cells expressing luciferase which could grow a puromycin-supplemented medium were selected. The selected cells were named “A549/OPNluc cells” and used for observation of luciferase expression inhibitory effect under control of OPN promoter, as described below.
(§2) A test compound was added to a culture containing A549/OPNluc cells to observe its influence on the amount of luciferase expressed in the cells. Here, it can be considered that when the test compound has a cell cytotoxity or cell growth inhibitory effect, the total expression level of luciferase is reduced due to a reduction in the number of living cells that depends on the concentration of the test compound, and therefore the luciferase expression inhibitory effect of the test compound under control of OPN promoter cannot be properly evaluated. For this reason, WST assay for quantification of cell proliferation ability or cell viability by colorimetric measurement was firstly performed to determine IC50 (concentration for 50% inhibition of cell growth) of the test compound for cell growth. Then, luciferase activity measurement was performed to determine EC50 (concentration for 50% inhibition of luciferase expression) of the test compound for luciferase expression under control of OPN promoter.
The same steps as in the above-mentioned WST assay were performed in which each solution of only DMSO (control) or the diluted test compound (sample) was added in an amount of 0.5 μL to each well containing the cell suspension to achieve 200-fold dilution, and the solution in each well was mixed with a vortex mixer, and the 96-well plate was incubated in a CO2 incubator (at 37° C. and 5% CO2) for 48±4 hours.
Luciferase Assay Substrate (hereinafter referred to as “LAS”) supplied in Luciferase Assay Systems (Promega: Cat #E1500) was dissolved in Luciferase Assay Buffer (LAB) to prepare a luciferase reagent. 5×Cell Culture Lysis Reagent (hereinafter referred to as “CCLR”) was diluted by 5 times with water to prepare 1×CCLR.
After the incubation for 48±4 hours, the medium in each well was completely removed, and 1×CCLR was dispensed into each well in an amount of 50 μL. The 96-well plate was allowed to stand at room temperature for 30 minutes, and then 1×CCLR in each well was used as an assay sample. The luciferase reagent (100 μL) was placed in a tube for chemiluminescence measurement, and the assay sample (20 μL) was added to the tube and mixed with the luciferase reagent to measure chemiluminescence (Relative Luminescence Intensity: RLU) using TB 20/20 (Promega) or GloMax 20/20 (Promega).
The RLU values of the control wells and the sample wells at each concentration were input into an Excel file, and the percentages of RLU values of the sample wells at each concentration to the average RLU value of the control wells were determined. From these values, a fitted curve was determined by the method of least squares to calculate EC50. Also, the percentages of RLU values of the sample wells at each concentration to the average RLU value of the control wells were divided by the percentages of absorbance values of the compounds in WST assay at the same concentrations as those of this assay (to the control), and a fitted curve was determined from the calculated values by the method of least squares to calculate corrected EC50.

A549/OPNluc cells = assay: WST assay for cell growth / cell viability; type: cell-based, human; conditions: 48±4 hours, WST-1, read-out: IC50 (concentration for 50% inhibition of cell growth)
Text: as §1, §2
A549/OPNluc cells were suspended in DMEM medium containing 10% fetal calf serum (FCS) and 1% penicillin/streptomycin (P/S) at 3×10^4 cells/mL to obtain a cell suspension, and then the cell suspension was dispensed into each well of a 96-well plate in an amount of 100 μL. In order to perform the assay in triplicate, wells were prepared for a control group, and 3 wells were prepared for each test compound-treated group at each concentration. After the dispensation, the 96-well plate was incubated in a CO2 incubator (at 37° C. and 5% CO2) for 24±4 hours.
The present compound was dissolved in dimethylsulfoxide (DMSO) to obtain a 50 mmol/L solution, and the compound solution was stored at −80° C. The compound solution was diluted with DMSO in 2-fold dilution series (usually, in the range of 0.31 mmol/L to 20 mmol/L) to prepare test compound solutions whose concentration varied by two fold for WST assay.
Each solution of only DMSO (control) and the diluted test compound (sample) was dispensed into each well containing the cell suspension in an amount of 0.5 μL (200-fold dilution). The solution in each well was mixed with a vortex mixer, and then the 96-well plate was incubated in a CO2 incubator (at 37° C. and 5% CO2) for 48±4 hours. Then, Premix WST-1 Reagent (TAKARA BIO INC.) was added in an amount of 10 μL to each well. The solution in each well was mixed with a vortex mixer, and then the 96-well plate was incubated at 37° C. and 5% CO2. After 60 minutes or 120 minutes, the absorbance values (450 nm) were measured with a microplate reader (Bio-Rad; Benchmark or Thermo Scientific; Varioskan Flash).
The absorbance values of the control wells and the sample wells at each concentration were input into an Excel file to determine the percentages of absorbance values of the sample wells at each concentration with to the average absorbance value of the control wells. From the determined values, a fitted curve was determined by the method of least squares to calculate IC50.

[2] = Homo sapiens, A549, A549/OPNluc cells, 48±4 hours, read-out: EC50 (concentration for 50% inhibition of luciferase expression)
[3] = Homo sapiens, A549, EC50 corrected for decrease in viable cells (RLU % divided by WST %), read-out: corrected EC50
[4] = Homo sapiens, A549, A549/OPNluc cells

SMILES | EC50 [1, 2] [µM] | EC50 [1, 3] [µM] | IC50 (A549/OPNluc cells; [4]) [µM] | EC50 ([1]; A549/OPNluc cells, 48±4 hours, read-out: EC50 (concentration for 50% inhibition of luciferase expression)) [µM] | EC50 ([1]; EC50 corrected for decrease in viable cells (RLU % divided by WST %), read-out: corrected EC50) [µM] | IC50 (A549/OPNluc cells; A549/OPNluc cells) [µM]
Nc1c(Oc2ccc(C(F)(F)F)cc2)cccc1C(=O)CCNC(=O)c1ccc(O)cc1 [Compound 15, N-(3-(2-Amino-3-(4-(trifluoromethyl)phenoxy)phenyl)-3-oxopropyl)-4-hydroxybenzamide] | 5.6 | 5.3 | 35.4 |  |  | 
O=C(Nc1cccc(Oc2ccc(Cl)cc2)c1)C1CCCN(C(=O)c2ccc(O)cc2)C1 (stereo not drawn) [Compound 33, N-(3-(4-Chlorophenoxy)phenyl)-1-(4-hydroxyphenylcarbonyl)piperidine-3-carboxamide] | 8.5 | 11.1 | 25.9 |  |  | 
Nc1c(Oc2ccc(Cl)cc2)cccc1C(=O)CCNC(=O)c1ccc(O)cc1 [Compound 17, N-(3-(2-Amino-3-(4-chlorophenoxy)phenyl)-3-oxopropyl)-4-hydroxybenzamide] | 3.7 | 4.2 | 47.7 |  |  | 
COc1ccc(Oc2ccc(NC(=O)CCNC(=O)c3ccc(O)cc3)cc2)cc1 [Compound 30, N-(3-(4-(4-methoxyphenoxy)phenylamino)-3-oxopropyl)-4-hydroxybenzamide] | 7 | 12.6 | 52.3 |  |  | 
COc1ccc(Oc2ccccc2C(=O)NCCNC(=O)c2ccc(O)cc2)cc1 [Compound 22, N-(2-(2-(4-Methoxyphenoxy)benzoylamino)ethyl)-4-hydroxybenzamide] | 42.2 | 50.4 | > 100 |  |  | 
Cc1ccc(Oc2cccc(C(=O)CCNC(=O)c3ccc(O)cc3)c2N)cc1 [Compound 14, N-(3-(2-Amino-3-(4-methylphenoxy)phenyl)-3-oxopropyl)-4-hydroxybenzamide] | 5.6 | 5 | 61.1 |  |  | 
O=C(Nc1cccc(Oc2ccc(Cl)cc2)c1)C1CN(C(=O)c2ccc(O)cc2)C1 [Compound 31, N-(3-(4-chlorophenoxy)phenyl)-1-(4-hydroxyphenylcarbonyl)azetidine-3-carboxamide] | 9.3 | 11 | 26.9 |  |  | 
CC(=O)Nc1ccc(C(=O)NCCC(=O)c2cccc(Oc3ccc(Cl)cc3)c2N)cc1 [Compound 20, N-(3-(2-amino-3-(4-chlorophenoxy)phenyl)-3-oxopropyl)-4-acetylaminobenzamide] | 16.3 | 18 | > 100 |  |  | 
COc1cccc(C(=O)NCCC(=O)c2cccc(Oc3ccc(O)cc3)c2N)c1 [Compound 7, N-(3-(2-Amino-3-(4-hydroxyphenoxy)phenyl)-3-oxopropyl)-3-methoxybenzamide] | 35.6 | 43.7 | 63.3 |  |  | 
O=C(CCC(=O)Nc1cccc(Oc2ccc(Cl)cc2)c1)Nc1ccc(O)cc1 [Compound 23, N-(4-Hydroxyphenyl)-4-(3-(4-chlorophenoxy)phenylamino)-4-oxobutanamide] | 71.5 | 82.8 | > 100 | 40.6 | 50.9 | 87.3

Reference: patent US11040937B2, “Amide derivative” (TOHOKU UNIVERSITY, priority 2014, dated 2021)
